One block for each compound: values may come before it.
Experiments:
common baldness in men = assay: Unit Area Trichogram (hair density); format: in vivo; settings: for producing hair growth in common baldness: alone: oestradiol benzoate 0.1%, medroxyprogesterone acetate 0.1%, 3,3-,5-triiodo-L-thyronine 20 pg in 3 ml of solution, or any two of the three
[1] = Hormone results during treatment; format: in vivo; settings: patient, after 6 months of systemic treatment
Description: Initially […] began treatment with medroxyprogesterone acetate starting with 5 mg daily increasing to 40 mg daily at 6 months.
At this time the following hormone results were obtained:
After 6 months of the same dose of systemic medroxyprogesterone acetate plus Trichogen II the following results were obtained: […]

[2] = Semen analysis during treatment; format: in vivo, patient; settings: after 6 months of systemic treatment
Description: Initially […] began treatment with medroxyprogesterone acetate starting with 5 mg daily increasing to 40 mg daily at 6 months. At this time the following hormone results were obtained: After 6 months of the same dose of systemic medroxyprogesterone acetate plus Trichogen II the following results were obtained: […]

SMILES: N[C@H](Cc1cc(I)c(Oc2ccc(O)c(I)c2)c(I)c1)C(=O)O [3,3-,5-triiodo-D-thyronine free acid, 3,3-,5-Triiodo-D-thyronine free acid]
- substitute for the -L-form of 3,3-,5-triiodothyronine (common baldness in men; topical, in any concentration): not an effective substitute

SMILES: N[C@@H](Cc1cc(I)c(Oc2ccc(O)c(I)c2)c(I)c1)C(=O)O [3,3-,5-triiodo-L-thyronine]
- producing hair growth in common baldness (common baldness in men; topical): not effective

- Semen analysis: Total count ([2]; patient (previous orchidopexy), n greater than 80 millions): 5 millions
- Semen analysis: Motility ([2]; patient, n greater than 60%): 10%
- Semen analysis: Abnormal forms ([2]; patient, n up to 25%): 35%
SMILES: CC(=O)O[C@]1(C(C)=O)CC[C@H]2[C@@H]3C[C@H](C)C4=CC(=O)CC[C@]4(C)[C@H]3CC[C@@]21C [medroxyprogesterone acetate]
- Meaningful hair density (hairs greater than 40 µm in diameter/cm^2), Frontal (common baldness in men; patient, after 6 months of systemic treatment, before treatment 215, n 232—340): 179 (n 232—340) hairs/cm^2
- Meaningful hair density (hairs greater than 40 µm in diameter/cm^2), Occipital (common baldness in men; patient, after 6 months of systemic treatment, before treatment 246, n 213—317): 271 (n 213—317) hairs/cm^2
- Total hair density, Occipital (common baldness in men; patient, after 6 months of systemic treatment, before treatment 251, n 261—356): 280 (n 261—356) hairs/cm^2
- Total hair density, Frontal (common baldness in men; patient, after 6 months of systemic treatment, before treatment 263, n 256—393): 248 (n 256—393) hairs/cm^2
- producing hair growth in common baldness (common baldness in men; topical): not effective
- Testosterone ([1]; 5 mg daily increasing to 40 mg daily, n 10—32): 27.0 nmol/L
- Dihydrotestosterone ([1]; 5 to 40 mg daily, n 0.7—2.7): 2.1 nmol/L
- SHBG ([1]; 5 to 40 mg daily, n 18—40): 36.0 nmol/L
- Oestradiol ([1]; 5 to 40 mg daily, n 50—180): 171.0 pmol/L
- 17 Alpha hydroxyprogesterone ([1]; n 0.6—6.0): 10.1 nmol/L
- Androstenedione ([1]; n 3.1—10.0): 4.9 nmol/L
- Dehydroepiandrosterone sulphate (DHEAS) ([1]; n 5—9): 9.4 µmol/L

SMILES: C[C@]12CC[C@@H]3c4ccc(OC(=O)c5ccccc5)cc4CC[C@H]3[C@@H]1CC[C@@H]2O [oestradiol benzoate]
- producing hair growth in common baldness (common baldness in men; topical): not effective

From patent EP0123528B1, “Pharmaceutical composition for the treatment of hair loss” (Mortimer, Christopher Harry, Dr., priority 1983, dated 1984)
